This is an account of results in patent publication US20150309047A1, “CIRCULATING PROTEOLYTIC BIOMARKERS OF CELL DEATH AND METHODS FOR THE USE THEREOF” (The Regents of the University of California, priority 2014, published 2015).

What all share (type): cell-based, human
Assay [1] has as its system Jurkat cells. As to the kind of experiment: Immunoblotting of caspase substrate proteolysis during apoptosis in Jurkat cells. The protocol:
Jurkat cells at a density of 1×10^6 cells/ml were treated with etoposide (50 μM) for 0, 2, 4, 8, 12, and 24 hours prior to harvesting. Harvested cells were pelleted at 2,000×g and 25° C. for 5 minutes, washed twice with phosphate buffered saline, and lysed at a concentration of 2×10^7 cells/ml in 1.0% SDS, phosphate buffered saline, 100 μM Z-VAD-FMK, 100 μM E-64, 1 mM PMSF, 1 mM AEBSF, 5 mM EDTA, and 10 mM sodium butyrate. Whole cell lysates were sonicated to shear genomic DNA, normalized to a protein concentration of approximately 2 mg/ml, as determined by BCA assay (Pierce). Cell lysates for each apoptotic timepoint were then analyzed by SDS-PAGE and Western blot. Mouse monoclonal anti-caspase-3 (#9668) and rabbit polyclonal anti-HDAC3 (#2632) antibodies were purchased from Cell Signaling Technology. Mouse monoclonal anti-DFF45 (#611036) antibody was purchased from BD Transduction Laboratories. Goat polyclonal anti-N-Cor (#sc-1611) and rabbit polyclonal anti-HDAC7 (#sc-11412) antibodies were purchased from Santa Cruz Biotechnology. Rabbit polyclonal anti-TBLR1 (#A300-408A), rabbit polyclonal anti-SHARP (#A301-119A), and rabbit polyclonal anti-RBBP7 (#A300-959A) antibodies were purchased from Bethyl Laboratories. Rabbit polyclonal anti-SMRTe (#06-891) antibody was purchased from Millipore. Western blots were imaged using SuperSignal West Femto Substrate (Pierce) with a FluorChem SP imager (Alpha Innotech). DNA fragmentation of whole cell DNA was analyzed by agarose gel with the Apoptotic DNA Ladder Kit (Roche).

In a further assay the test system is MM1.S. As to the kind of experiment: N-terminal labeling and MS of proteolytic fragments released into media from drug-treated cultured cells. To be noted: MM1.S treated with bortezomib for at least 21 h. The protocol: (§1) MM1.S and SU-DHL-8 lines were obtained from ATCC; MOLM-13 from DMSZ. Cell lines were grown in RPMI-1640 media without fetal bovine serum for 24 h prior to drug treatment at indicated doses. After treatment, cells and debris were separated from media by low speed (800×g, 5 min), followed by high speed (24,000×g, 1 h) centrifugation. Total protein in media was precipitated with trichloroacetic acid, resuspended in 8M guanidine HCl, then subjected to N-terminal labeling as described (Wiita A P, et al. (2013) Global cellular response to chemotherapy-induced apoptosis. Elife 2:e01236).
(§2) Three cell lines treated with different drugs were evaluated: i) MM1.S, derived from multiple myeloma and treated with the proteasome inhibitor bortezomib, ii) MOLM-13, derived from acute myeloid leukemia and treated with the nucleoside analog cytarabine, and iii) SU-DHL-8, derived from diffuse large B-cell lymphoma and treated with the DNA-damaging agent doxorubicin. All of these conditions reflect the diagnoses of patients in the discovery cohort combined with clinically used chemotherapeutics. Under each condition the cells were either treated with drug or mock-treated for at least 21 h. […] After removing whole cells, proteins in the media were precipitated with trichloroacetic acid and then subjected to N-terminal labeling by subtiligase. FBS-free media was used in these experiments to avoid contamination from normal bovine plasma proteins.

The test system of the next assay is MOLM-13. The description is as above. The settings on record: MOLM-13 treated with cytarabine for at least 21 h. The protocol:
as §1, §2

For another assay, the system named is SU-DHL-8. Described as above. The settings on record: SU-DHL-8 treated with doxorubicin for at least 21 h. The protocol:
as §1, §2

Assay [2] has as its system Jurkat cells. As to the kind of experiment: Subtiligase N-terminal labeling and LC/MS/MS degradomic analysis of etoposide-treated apoptotic Jurkat cells. To be noted: Jurkat cells treated with etoposide. How it is done:
Jurkat clone E6-1 (ATCC) cells were grown in RPMI-1640 supplemented with 10% fetal bovine serum, sodium pyruvate, and antibiotics. Normal cells were harvested for experiments at a density of 1×10^6 cells/ml. For apoptotic samples, cells at a density of 1×10^6 cells/ml were treated with etoposide (50 μM) for 12 hours prior to harvesting. Harvested cells (0.1 to 1 billion) were pelleted at 2,000×g and 25° C. for 5 minutes, washed twice with phosphate buffered saline, and lysed at a typical concentration of 2×10^8 cells/ml in 1.0% Triton X-100, 100 mM BICINE pH 8.0, 100 μM Z-VAD-FMK, 100 μM E-64, 1 mM PMSF, 1 mM AEBSF, and 5 mM EDTA. Cell lysates were incubated at room temperature for 1 hour to allow complete inhibition of endogenous protease and esterase activity, and centrifuged at 21,000×g and 4° C. for 15 minutes to pellet insoluble material. Clarified supernatant was immediately used in ligation reactions at a protein concentration of approximately 20 mg/ml, as determined by Bradford assay (Bio-Rad).
Subtiligase (1 μM), biotinylated peptide ester (1 mM), and DTT (2 mM) were added to either control or apoptotic cell lysate. Ligation reactions were typically left to proceed at room temperature for 60 minutes. […]

Where [3] appears, read: Jurkat cells, 50 μM etoposide, immunoblot.

Residues, ends and D or L forms follow the SMILES beside them. *: point of attachment. Cbz = O=C(OCc1ccccc1)*; CH2F = FC*

Turning to `COC(=O)C[C@H](NC(=O)[C@H](C)NC(=O)[C@@H](NC(=O)OCc1ccccc1)C(C)C)C(=O)CF` [Z-VAD(OMe)-fmk] (Cbz-Val-Ala-Asp(OMe)-CH2F), the “cleavage of representative substrates HDAC7, Ku80, RCOR2, TBLR1, and UBP36” value in the assay with Jurkat cells [1] (etoposide-treated Jurkat cells with caspase inhibitor) is “blocked”.

Consider `CC(C)C[C@H](NC(=O)[C@H](Cc1ccccc1)NC(=O)c1cnccn1)B(O)O` [bortezomib], for which the “apoptosis of treated cells” value in the assay with MM1.S was “at least 50%”.

Consider `Nc1ccn([C@@H]2O[C@H](CO)[C@@H](O)[C@@H]2O)c(=O)n1` [cytarabine], for which the “apoptosis of treated cells” value in the assay with MOLM-13 is “at least 50%”.

With `COc1cccc2c1C(=O)c1c(O)c3c(c(O)c1C2=O)C[C@@](O)(C(=O)CO)C[C@@H]3O[C@H]1C[C@H](N)[C@H](O)[C@H](C)O1` [doxorubicin], the “apoptosis of treated cells” value with SU-DHL-8 was “at least 50%”.

Regarding `COc1cc([C@@H]2c3cc4c(cc3[C@@H](O[C@@H]3O[C@@H]5CO[C@@H](C)O[C@H]5[C@H](O)[C@H]3O)[C@H]3COC(=O)[C@H]23)OCO4)cc(OC)c1O` [etoposide], the “N-termini identified in apoptotic cells derived from P1 aspartate cleavages” value in the assay with Jurkat cells [2] (large-scale (2D LC/MS/MS) experiments) and with Jurkat cells [2] (small-scale (1D LC/MS/MS) experiments) was 43% in each case. In addition, in the assay with Jurkat cells [1] (setting [3]), the “proteolysis of CM, Ku80, LCOR, and RBBP7 (time courses)” value is reported as “partial cleavage”. Also, in the assay on Jurkat cells [1] (setting [3]), the “proteolysis of HDAC6, HDAC7, N-CoR, RCOR2, SHARP, TBLR1, UBPS, and UBP36 (time courses)” value is “full cleavage”.
